Measurements taken from US12459951B2, “Compounds that interact with RAS superfamily proteins for treatment of cancers, inflammatory diseases, rasopathies, and fibrotic disease” (SHY Therapeutics, LLC, priority 2022, dated 2025).
Read-outs that look alike come from different tables or passages of the source.

Experiments:
TNF-alpha = TNF-alpha Quantification Assay (ELISA), LPS-stimulated RAW 264.7; assay type: cell-based; settings: Mus musculus, RAW264.7; at 10 μM; read-out: TNFα: % inh.
[1] = system: Smad2/Smad3 phosphorylation; experiment: Phospho-Smad2/3 Inhibition Assay (western blot), Panc-1; assay type: cell-based, human; settings: at 10 μM, Panc-1 pancreatic cancer cell line; starred symbols = activation
Summary of the method: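 Western blotting of lysates (15-50 μg protein) read phosphorylation of Smad2 Ser465/467 and Smad3 Ser423/425. Before lysis, Panc-1 cells got 1 h of 10 ng/ml TGF-b1 following 3 h compound exposure at 37° C (10 μM final, or serial dilutions for IC50, 0.3% DMSO) after overnight 0.5% FBS starvation.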

[2] = system: MiaPaca-2 (expressing KRAS G12C mutant); experiment: Proliferation Assay (Cell Viability Assay); assay type: cell-based; settings: Homo sapiens, MIA PaCa-2
Summary of the method: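 After 2–4 days' exposure at 37 °C, 5% CO2 to a single 10 μM final concentration or a dilution series (IC50), percent proliferation inhibition was derived from CellTiter 96 Aqueous One viability readings. The medium contained 0.3% DMSO and 10% FBS. KRAS G12C MiaPaca-2 cells were plated at 2000–5000/well the day before.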

[3] = read-out: Proliferation in MiaPaca-2: IC50

| SMILES | inhibition at 10 µM (TNF-alpha) | % inh of Smad2/3 phosphorylation in Panc-1 [1] | IC50 [2, 3] | IC50 ([2]; Proliferation assay, MiaPaca-2, read-out: MiaPaca-2 IC50 (nM) Pancreatic) |
| --- | --- | --- | --- | --- |
| Cc1c(-c2ccn(C)n2)cn2nc(-c3nccn3C)nc(Nc3ccc(C(F)(F)F)cn3)c12 [Compound 233, 5-Methyl-2-(1-methyl-1H-imidazol-2-yl)-6-(1-methyl-1H-pyrazol-3-yl)-N-(5-(trifluoromethyl)pyridin-2-yl)pyrrolo[2,1-f][1,2,4]triazin-4-amine] | 1 to 24% | B (B = 26-45% inhibition) | < 150 nM |  |
| Cc1c(-c2ccn(C)n2)cn2nc(-c3nccn3C)nc(Nc3ccc(C(F)F)cn3)c12 [Compound 234, N-(5-(Difluoromethyl)pyridin-2-yl)-5-methyl-2-(1-methyl-1H-imidazol-2-yl)-6-(1-methyl-1H-pyrazol-3-yl)pyrrolo[2,1-f][1,2,4]triazin-4-amine] | 1 to 24% | D (D = 76-100% inhibition) | < 150 nM |  |
| CCNC(=O)c1c(-c2ccn(C)n2)cn2nc(-c3nccn3C)nc(Nc3cc(OC)ccn3)c12 [Compound 173, N-Ethyl-4-((4-methoxypyridin-2-yl)amino)-2-(1-methyl-1H-imidazol-2-yl)-6-(1-methyl-1H-pyrazol-3-yl)pyrrolo[2,1-f][1,2,4]triazine-5-carboxamide] | 0% | D* (D* = 76-100% activation) | 510 to 1000 nM |  |
| COc1cnc(Nc2nc(-c3nccn3C)nn3cc(-c4ccn(C)n4)c(C)c23)cc1C [Compound 236, N-(5-Methoxy-4-methylpyridin-2-yl)-5-methyl-2-(1-methyl-1H-imidazol-2-yl)-6-(1-methyl-1H-pyrazol-3-yl)pyrrolo[2,1-f][1,2,4]triazin-4-amine] | 0% | 0 (0 = 0% inhibition) | 150 to 500 nM |  |
| Cc1c(-c2ccn(C)n2)cn2nc(-c3nccn3C)nc(Nc3cc(C(C)(C)O)ccn3)c12 [Compound 240, 2-(2-((5-Methyl-2-(1-methyl-1H-imidazol-2-yl)-6-(1-methyl-1H-pyrazol-3-yl)pyrrolo[2,1-f][1,2,4]triazin-4-yl)amino)pyridin-4-yl)propan-2-ol] | 0% | 0 (0 = 0% inhibition) | < 150 nM |  |
| COc1ccnc(Nc2nc(-c3nccn3C)nn3cc(-c4ccn(C)n4)c(C(=O)NCC(F)(F)F)c23)c1 [Compound 174, 4-((4-Methoxypyridin-2-yl)amino)-2-(1-methyl-1H-imidazol-2-yl)-6-(1-methyl-1H-pyrazol-3-yl)-N-(2,2,2-trifluoro-ethyl)pyrrolo[2,1-f][1,2,4]triazine-5-carboxamide] | 0% | A* (A* = 1-25% activation) | 150 to 500 nM |  |
| CO[C@H]1C[C@H](Nc2nc(-c3nccn3C)nn3cc(-c4ccc(CCN)cc4)c(-c4ccccc4)c23)C1.Cl [Compound 207, 6-(4-(2-Aminoethyl)phenyl)-N-((1r,3r)-3-methoxycyclobutyl)-2-(1-methyl-1H-imidazol-2-yl)-5-phenylpyrrolo[2,1-f][1,2,4]triazin-4-amine hydrochloride salt] | 75 to 100% | D (D = 76-100% inhibition) | > 1000 nM |  |
| COC1CCCN(c2nc(-c3ccccn3)nn3cc(-c4ccn(C(C)C)n4)c(C)c23)C1 (racemic) [Compound 12, rac 6-(1-Isopropyl-1H-pyrazol-3-yl)-4-(3-methoxypiperidin-1-yl)-5-methyl-2-(pyridin-2-yl)pyrrolo[2,1-f][1,2,4]triazine] | 0% | 0 (0 = 0% inhibition) | > 1000 nM |  |
| Cc1c(-c2ccn(C)n2)cn2nc(-c3nccn3C)nc(Nc3ccc(N(C)C)cn3)c12 [Compound 227, N5,N5-Dimethyl-N2-(5-methyl-2-(1-methyl-1H-imidazol-2-yl)-6-(1-methyl-1H-pyrazol-3-yl)pyrrolo[2,1-f][1,2,4]triazin-4-yl)pyridine-2,5-diamine] | 50 to 74% | C (C = 46-75% inhibition) | < 150 nM |  |
| Cc1c(-c2ccn(C)n2)cn2nc(-c3nccn3C)nc(Nc3cc(N4CCOCC4)ccn3)c12 [Compound 222, 5-Methyl-2-(1-methyl-1H-imidazol-2-yl)-6-(1-methyl-1H-pyrazol-3-yl)-N-(4-morpholinopyridin-2-yl)pyrrolo[2,1-f][1,2,4]triazin-4-amine] | 0% | A* (A* = 1-25% activation) | < 150 nM | 1 to 10 nM |
| Cc1c(-c2ccn(C)n2)cn2nc(-c3nccn3C)nc(Nc3ccc(N4CCCC4)cn3)c12 [Compound 228, 5-Methyl-2-(1-methyl-1H-imidazol-2-yl)-6-(1-methyl-1H-pyrazol-3-yl)-N-(5-(pyrrolidin-1-yl)pyridin-2-yl)pyrrolo[2,1-f][1,2,4]triazin-4-amine] | 1 to 24% | 0 (0 = 0% inhibition) | < 150 nM |  |
| COc1ccnc(Nc2nc(-c3nccn3C)nn3cc(-c4ccn(C)n4)c(C(=O)N4CCCC4)c23)c1 [Compound 178, (4-((4-Methoxypyridin-2-yl)amino)-2-(1-methyl-1H-imidazol-2-yl)-6-(1-methyl-1H-pyrazol-3-yl)pyrrolo[2,1-f][1,2,4]triazin-5-yl)(pyrrolidin-1-yl)methanone] | 0% | B* (B* = 26-45% activation) | > 1000 nM |  |
| COc1cc(Nc2nc(-c3ccccn3)nn3cc(-c4ccn(C(C)C)n4)c(C)c23)ncn1 [Compound 13, 6-(1-Isopropyl-1H-pyrazol-3-yl)-N-(6-methoxypyrimidin-4-yl)-5-methyl-2-(pyridin-2-yl)pyrrolo[2,1-f][1,2,4]triazin-4-amine] | 0% | 0 (0 = 0% inhibition) | 150 to 500 nM |  |
| CO[C@H]1C[C@H](Nc2nc(-c3nccn3C)nn3cc(-c4cccc5c4CCO5)c(-c4ccccc4)c23)C1 [Compound 210, 6-(2,3-Dihydrobenzofuran-4-yl)-N-((1r,3r)-3-methoxycyclobutyl)-2-(1-methyl-1H-imidazol-2-yl)-5-phenylpyrrolo[2,1-f][1,2,4]triazin-4-amine] | 75 to 100% | D (D = 76-100% inhibition) | 510 to 1000 nM |  |
| Cc1c(-c2ccn(C)n2)cn2nc(-c3nccn3C)nc(O)c12 [Compound 172, 5-Methyl-2-(1-methyl-1H-imidazol-2-yl)-6-(1-methyl-1H-pyrazol-3-yl)pyrrolo[2,1-f][1,2,4]triazin-4-ol] | 0% | A (A = 1-25% inhibition) | > 1000 nM |  |
| CO[C@@H]1C[C@H]1Nc1nc(-c2nccn2C)nn2cc(-c3cccnc3)c(-c3ccccc3)c12 (racemic) [Compound 190, N-((1R,2R)-2-Methoxycyclopropyl)-2-(1-methyl-1H-imidazol-2-yl)-5-phenyl-6-(pyridin-3-yl)pyrrolo[2,1-f][1,2,4]triazin-4-amine] | 1 to 24% | A (A = 1-25% inhibition) | > 1000 nM |  |
| CO[C@H]1C[C@@H](Nc2nc(-c3nccn3C)nn3cc(-c4cccnc4)c(-c4ccccc4)c23)C1 [Compound 191, N-((1s,3s)-3-Methoxycyclobutyl)-2-(1-methyl-1H-imidazol-2-yl)-5-phenyl-6-(pyridin-3-yl)pyrrolo[2,1-f][1,2,4]triazin-4-amine] | 1 to 24% | A* (A* = 1-25% activation) | > 1000 nM |  |
| COc1ccc(Nc2nc(-c3nccn3C)nn3cc(-c4ccn(C)n4)c(C)c23)nc1 [Compound 224, N-(5-Methoxypyridin-2-yl)-5-methyl-2-(1-methyl-1H-imidazol-2-yl)-6-(1-methyl-1H-pyrazol-3-yl)pyrrolo[2,1-f][1,2,4]triazin-4-amine] | 1 to 24% | 0 (0 = 0% inhibition) | < 150 nM |  |
| COc1ccnc(Nc2nc(-c3nccn3C)nn3cc(-c4cccnc4)c(-c4ccccc4)c23)c1 [Compound 196, N-(4-Methoxypyridin-2-yl)-2-(1-methyl-1H-imidazol-2-yl)-5-phenyl-6-(pyridin-3-yl)pyrrolo[2,1-f][1,2,4]triazin-4-amine] | 75 to 100% | C (C = 46-75% inhibition) | < 150 nM |  |
| COCCNc1nc(-c2nccn2C)nn2cc(-c3ccncc3)c(-c3ccccc3)c12 [Compound 202, N-(2-Methoxyethyl)-2-(1-methyl-1H-imidazol-2-yl)-5-phenyl-6-(pyridin-4-yl)pyrrolo[2,1-f][1,2,4]triazin-4-amine] | 1 to 24% | A (A = 1-25% inhibition) | > 1000 nM |  |
| CO[C@H]1C[C@H](Nc2nc(-c3nccn3C)nn3cc(-c4cccc(OCCN)c4)c(-c4ccccc4)c23)C1 [Compound 205, 6-(3-(2-Aminoethoxy)phenyl)-N-((1r,3r)-3-methoxycyclobutyl)-2-(1-methyl-1H-imidazol-2-yl)-5-phenylpyrrolo[2,1-f][1,2,4]triazin-4-amine] |  | D (D = 76-100% inhibition) | > 1000 nM |  |
